# Measurements: patent US8609173B2, “Compositions comprising sweetness enhancers and methods of making them” (Senomyx Inc., priority 2008, dated 2013)
# Experiments:
# External panelists = experiment: Line scale (15-point sucrose equivalence) sensory test, Example 5, sucrose or LSB, pH 7.1; type: in vivo, Human
# Experimental: (§1) Several types of sensory tests were used to determine the efficacy of 3-(4-amino-2,2-dioxide-1H-benzo[c][1,2,6]thiadiazin-5-yloxy)-2′,2′-dimethyl-N-propylpropanamide 3-(4-amino-2,2-dioxide-1H-benzo[c][1,2,6]thiadiazin-5-yloxy)-2′,2′-dimethyl-N-propylpropanamide in enhancing the sweetness of sucrose. Two types of tests were conducted: • 1) Sensory scaling tests were performed using a 15-point percent sucrose equivalence scale for sweetness in order to evaluate sweetness enhancement 3-(4-amino-2,2-dioxide-1H-benzo[c][1,2,6]thiadiazin-5-yloxy)-2′,2′-dimethyl-N-propylpropanamide 3-(4-amino-2,2-dioxide-1H-benzo[c][1,2,6]thiadiazin-5-yloxy)-2′,2′-dimethyl-N-propylpropanamide in sucrose or in fructose. • 2) Paired comparison tests (2-alternative forced choice difference tests) were used to determine sweetness equivalence for solutions of sucrose vs. 3-(4-amino-2,2-dioxide-1H-benzo[c][1,2,6]thiadiazin-5-yloxy)-2′,2′-dimethyl-N-propylpropanamide 3-(4-amino-2,2-dioxide-1H-benzo[c][1,2,6]thiadiazin-5-yloxy)-2′,2′-dimethyl-N-propylpropanamide or buffer vs. 3-(4-amino-2,2-dioxide-1H-benzo[c][1,2,6]thiadiazin-5-yloxy)-2′,2′-dimethyl-N-propylpropanamide 3-(4-amino-2,2-dioxide-1H-benzo[c][1,2,6]thiadiazin-5-yloxy)-2′,2′-dimethyl-N-propylpropanamide. Stimuli:
# Tests were performed with sucrose or fructose. The sweetener was evaluated with and/or without 3-(4-amino-2,2-dioxide-1H-benzo[c][1,2,6]thiadiazin-5-yloxy)-2′,2′-dimethyl-N-propylpropanamide 3-(4-amino-2,2-dioxide-1H-benzo[c][1,2,6]thiadiazin-5-yloxy)-2′,2′-dimethyl-N-propylpropanamide at the appropriate concentration(s).
# 3-(4-amino-2,2-dioxide-1H-benzo[c][1,2,6]thiadiazin-5-yloxy)-2′,2′-dimethyl-N-propylpropanamide was prepared as a concentrated stock solution in ethanol to ensure dissolution of the 3-(4-amino-2,2-dioxide-1H-benzo[c][1,2,6]thiadiazin-5-yloxy)-2′,2′-dimethyl-N-propylpropanamide. Therefore, all taste solutions contained ethanol in the final solution. Samples without 3-(4-amino-2,2-dioxide-1H-benzo[c][1,2,6]thiadiazin-5-yloxy)-2′,2′-dimethyl-N-propylpropanamide also contained an equivalent concentration of ethanol. For samples involving 3-(4-amino-2,2-dioxide-1H-benzo[c][1,2,6]thiadiazin-5-yloxy)-2′,2′-dimethyl-N-propylpropanamide at 5-10 ppm (up to 28 μM), the final concentration of ethanol was 0.2%; 30-40 μM, 0.4% ethanol; 50 μM, 0.5% ethanol; and 100 μM, 1% ethanol.
# Taste samples were also prepared in low sodium phosphate buffer (pH 7.1; “LSB”) lacking sucrose to evaluate the taste of 3-(4-amino-2,2-dioxide-1H-benzo[c][1,2,6]thiadiazin-5-yloxy)-2′,2′-dimethyl-N-propylpropanamide alone. Low sodium phosphate buffer consists of 0.3 mM KCl, 0.5 mM Na2HPO4, and 0.175 mM KH2PO4.
# In scaling test situations, the samples were rated on a 15-point scale for sweetness, ranging from 0=0% sucrose to 15=15% sucrose. To evaluate attributes other than sweetness, references are used for training and are prepared according to the table below. Note that each reference was given a score of 5 on the 15-point scale.
# External panelists were used for the tests. The exact number of panelists is reported with test results. Subjects were instructed not to eat or drink anything (except water) for at least 1 hour prior to the test.
# Panelists rinsed their mouths with water prior to starting any test. Samples were presented to panelists in a randomized, counterbalanced order. Panelists rinsed with water and had up to a 1 minute delay to clear the mouth of any tastes after each evaluation. Two replicates of each test were performed, unless otherwise noted.
# In scaling tests, panelists rate samples monadically for the attributes listed above (see Stimuli). In paired comparison tests, panelists taste pairs of solutions and indicate which sample is perceived to be sweeter.
# Attributes of interest are reported for each scaling taste test.
# Panelists rinsed their mouths with water prior to starting any test. Samples were presented to panelists in a randomized, counterbalanced order. […]
# Panelists = experiment: Paired comparison taste test, Example 7, sucrose or fructose solutions; type: in vivo, Human; conditions: 1% Sucrose chosen, vs 28 μM (9.9 ppm) compound; n = 32
# Experimental: as §1
# Panelists evaluated two solutions in a paired comparison taste test procedure. They were instructed to select the sweeter of the two samples. They were also asked to comment on how difficult it was to tell the difference in sweetness between both samples and if any off tastes were perceived.
# Panelists evaluated two solutions in a paired comparison taste test procedure and were instructed to select the sweeter of the two samples.
structure (smiles),measurement,setting,value
"OC[C@H]1O[C@@](CO)(O[C@H]2O[C@H](CO)[C@@H](O)[C@H](O)[C@H]2O)[C@@H](O)[C@@H]1O [Sucrose, sucrose]",Average Sweetness,"External panelists; 1% Sucrose, Table 25, n = 30",1.2
same,Average Bitterness,"External panelists; 1% Sucrose, Table 26, n = 30",0.4
same,Average Sweetness,"External panelists; 2% Sucrose, Table 20, n = 30",2.3
same,Average Bitterness,"External panelists; 2% Sucrose, Table 21, n = 30",0.3
same,Average Sweetness,"External panelists; 2% Sucrose, Table 22, n = 14",2.3
same,Average Sweetness,"External panelists; 2% Sucrose, Table 25, n = 30",2.2
same,Average Bitterness,"External panelists; 2% Sucrose, Table 26, n = 30",0.3
same,Average Sweetness,"External panelists; 2% Sucrose, Table 27, n = 28",2.0
same,Average Bitterness,"External panelists; 2% Sucrose, Table 28, n = 28",0.1
same,Average Sweetness,"External panelists; 4% Sucrose, Table 20, n = 30",4.2
same,Average Bitterness,"External panelists; 4% Sucrose, Table 21, n = 30",0.2
same,Average Sweetness,"External panelists; 4% Sucrose, Table 22, n = 14",4.3
same,Average Sweetness,"External panelists; 4% Sucrose, Table 25, n = 30",4.4
same,Average Bitterness,"External panelists; 4% Sucrose, Table 26, n = 30",0.3
same,Average Sweetness,"External panelists; 4% Sucrose, Table 27, n = 28",4.2
same,Average Bitterness,"External panelists; 4% Sucrose, Table 28, n = 28",0.1
same,Average Sweetness,"External panelists; 6% Sucrose, Table 16, n = 15",6.3
same,Average Bitterness,"External panelists; 6% Sucrose, Table 17, n = 15",0.3
same,Average Sweetness,"External panelists; 6% Sucrose, Table 18, n = 24",6.2
same,Average Bitterness,"External panelists; 6% Sucrose, Table 19, n = 24",0.2
same,Average Sweetness,"External panelists; 6% Sucrose, Table 20, n = 30",5.8
same,Average Bitterness,"External panelists; 6% Sucrose, Table 21, n = 30",0.2
same,Average Sweetness,"External panelists; 6% Sucrose, Table 22, n = 14",5.7
same,Average Sweetness,"External panelists; 6% Sucrose, Table 23, n = 30",6.7
same,Average Bitterness,"External panelists; 6% Sucrose, Table 24, n = 30",0.4
same,Average Sweetness,"External panelists; 6% Sucrose, Table 25, n = 30",6.4
same,Average Bitterness,"External panelists; 6% Sucrose, Table 26, n = 30",0.6
same,Average Sweetness,"External panelists; 6% Sucrose, Table 27, n = 28",6.1
same,Average Bitterness,"External panelists; 6% Sucrose, Table 28, n = 28",0.1
same,Average Sweetness,"External panelists; 8% Sucrose, Table 16, n = 15",7.7
same,Average Bitterness,"External panelists; 8% Sucrose, Table 17, n = 15",0.1
same,Average Sweetness,"External panelists; 8% Sucrose, Table 18, n = 24",8.3
same,Average Bitterness,"External panelists; 8% Sucrose, Table 19, n = 24",0.1
same,Average Sweetness,"External panelists; 8% Sucrose, Table 23, n = 30",8.3
same,Average Bitterness,"External panelists; 8% Sucrose, Table 24, n = 30",0.4
same,Average Sweetness,"External panelists; 8% Sucrose, Table 25, n = 30",8.7
same,Average Bitterness,"External panelists; 8% Sucrose, Table 26, n = 30",0.3
same,Average Sweetness,"External panelists; 8% Sucrose, Table 27, n = 28",8.4
same,Average Bitterness,"External panelists; 8% Sucrose, Table 28, n = 28",0.2
same,Average Sweetness,"External panelists; 9% Sucrose, Table 16, n = 15",9.0
same,Average Bitterness,"External panelists; 9% Sucrose, Table 17, n = 15",0.1
same,Average Sweetness,"External panelists; 9% Sucrose, Table 18, n = 24",9.3
same,Average Bitterness,"External panelists; 9% Sucrose, Table 19, n = 24",0.1
same,Average Sweetness,"External panelists; 10% Sucrose, Table 16, n = 15",9.2
same,Average Bitterness,"External panelists; 10% Sucrose, Table 17, n = 15",0.2
same,Average Sweetness,"External panelists; 10% Sucrose, Table 18, n = 24",9.8
same,Average Bitterness,"External panelists; 10% Sucrose, Table 19, n = 24",0.1
same,Average Sweetness,"External panelists; 10% Sucrose, Table 23, n = 30",10.3
same,Average Bitterness,"External panelists; 10% Sucrose, Table 24, n = 30",0.2
same,Average Sweetness,"External panelists; 10% Sucrose, Table 25, n = 30",10.5
same,Average Bitterness,"External panelists; 10% Sucrose, Table 26, n = 30",0.3
same,Average Sweetness,"External panelists; 10% Sucrose, Table 27, n = 28",9.6
same,Average Bitterness,"External panelists; 10% Sucrose, Table 28, n = 28",0.1
same,Average Sweetness,"External panelists; 12% Sucrose, Table 18, n = 24",11.1
same,Average Bitterness,"External panelists; 12% Sucrose, Table 19, n = 24",0.0
same,Average Sweetness,"External panelists; 12% Sucrose, Table 23, n = 30",11.2
same,Average Bitterness,"External panelists; 12% Sucrose, Table 24, n = 30",0.3
same,"Sample selected as more sweet by panelists, Total",Panelists,28
